Data set [1] can be described thus: Pharmacokinetics in male cynomolgus monkeys (co-crystal capsules, spray-dried dispersion). Type of data set: in vivo. As to the method:
Two groups of male cynomolgus monkeys (n=3/group) were administered test articles in a 3-way crossover design as indicated in Table 2. The washout period between doses was 3-4 days. Test article capsules were prepared such that each capsule contained an equivalent of 25 mg of free base compound I-1. The organic stock solution of compound I-1 was prepared at a concentration of 5 mg/ml using TPGS/PEG400/PG, and was diluted with apple juice within 1 hour of dosing (PO) at 1 part stock solution to 3 parts apple juice.
FIGS. 11-14 provide graphs of the plasma concentrations obtained from administering the co-crystal formulations of compound I-1 to monkeys. And Table 3 provides pharmacokinetic (PK) data for the co-crystal formulations, including the average area under the curve (AUC) and percent bioavailability.
FIG. 19 provides PK data for one embodiment of the disclosed spray-dried formulation, and the organic/juice formulation.

Data set [2] is described as follows: Physical and chemical stability of salts of I-18, 1 week (XRPD, HPLC purity). Type of data set: physicochemical. Conditions: for Area (%) of HPLC peak RRT 1.00: main peak; for Area (%) of HPLC peak RRT 1.17: peak = parent compound formed by hydrolysis; for Form change: XRPD; for Initial purity (area %): HPLC, before storage. As to the method:
The physical and chemical stability of the K salt, Arginine salt, Choline salt and Tris salt were evaluated under conditions of 25° C./60% RH and 40° C./75% RH for 1 week. Each sample was added into 3 mL glass vials, sealed by parafilm with several holes, and kept under tested condition. After one week, samples was taken for XRPD and HPLC purity test.

The mark [3] stands for this setting: 25° C./60% RH, 1 week, listed as tris salt.
Where [4] appears, read: 40° C./75% RH, 1 week, listed as tris salt.
The mark [5] stands for this setting: 25° C./60% RH, 1 week, listed as potassium salt.
[6] abbreviates: 40° C./75% RH, 1 week, listed as potassium salt.
[7] abbreviates: Initial, listed as potassium salt.
Where [8] appears, read: 25° C./60% RH, 1 week, listed as choline salt.
[9] abbreviates: 40° C./75% RH, 1 week, listed as choline salt.
Setting [10] is: Initial, listed as choline salt.

Where a name gives a salt, the structure may show the parent alone.

For the molecule `CCO[C@H]1CC[C@H](n2cc(NC(=O)c3csc(-c4cn[nH]c4)n3)c(-c3nc(F)ccc3F)n2)CC1.O=C(O)C(O)C(O)C(=O)O` [I-11, N-(3-(3,6-difluoropyridin-2-yl)-1-((1r,4r)-4-ethoxycyclohexyl)-1H-pyrazol-4-yl)-2-(1H-pyrazol-4-yl)thiazole-4-carboxamide hemi-tartrate salt], the “% F (percent bioavailability)” value in data set [1] (n=3, capsule with equivalent of 25 mg free base compound I-1) was 24.7%.

On to `CCO[C@H]1CC[C@H](n2cc(NC(=O)c3csc(-c4cnn(C(C)OP(=O)(O)O)c4)n3)c(-c3nc(F)ccc3F)n2)CC1` (stereo partly drawn) [I-49, 1-(4-(4-((3-(3,6-difluoropyridin-2-yl)-1-((1r,4r)-4-ethoxycyclohexyl)-1H-pyrazol-4-yl)carbamoyl)thiazol-2-yl)-1H-pyrazol-1-yl)ethyl dihydrogen phosphate tris salt], for which the “Area (%) of HPLC peak RRT 1.13” value in data set [2] (25° C./60% RH, 1 week) was 0.06%. For the same molecule, in data set [2] (setting [3]), the “Area (%) of HPLC peak RRT 0.77” value was less than 0.03%, the “Area (%) of HPLC peak RRT 1.45” value is 0.35%, the “Area (%) of HPLC peak RRT 1.71” value turned out to be 0.80% and the “Area (%) of HPLC peak RRT 1.73” value is 0.55%. Further, in data set [2] (setting [3]), the HPLC purity change entry is recorded as “no HPLC purity decrease”, the “Area (%) of HPLC peak RRT 1.00” value is given as 96.61% and the “Area (%) of HPLC peak RRT 1.17” value is listed as 1.63%. For the same molecule, in data set [2] (25° C./60% RH/1 week, listed as Tris salt), the Form change entry was “no form change and No”. Besides, in data set [2] (setting [4]), the “Area (%) of HPLC peak RRT 0.77” value was 0.03%, the “Area (%) of HPLC peak RRT 1.45” value is 0.47%, the “Area (%) of HPLC peak RRT 1.71” value is listed as 0.88% and the “Area (%) of HPLC peak RRT 1.73” value was determined as 0.84%. In data set [2] (setting [4]), the HPLC purity change entry was “a purity decrease was observed”, the “Area (%) of HPLC peak RRT 1.00” value amounted to 95.03% and the “Area (%) of HPLC peak RRT 1.17” value was determined as 2.69%. For the same molecule, in data set [2] (40° C./75% RH/1 week, listed as Tris salt), the Form change entry is “no form change and No”. Also, in data set [2] (listed as Tris salt), the “Initial purity (area %)” value was found to be 96.06 area %. In data set [2] (Initial, listed as tris salt), the “Area (%) of HPLC peak RRT 0.77” value is given as less than 0.03%, the “Area (%) of HPLC peak RRT 1.13” value is 0.07%, the “Area (%) of HPLC peak RRT 1.45” value is given as 0.37% and the “Area (%) of HPLC peak RRT 1.71” value came out at 0.86%. For the same molecule, in data set [2] (Initial, listed as tris salt), the “Area (%) of HPLC peak RRT 1.73” value was determined as 0.76%, the “Area (%) of HPLC peak RRT 1.00” value was 96.06% and the “Area (%) of HPLC peak RRT 1.17” value is on record as 1.87%.

One may read the bioavailability as dose-corrected exposure relative to a reference, in per cent. On to `CCO[C@H]1CC[C@H](n2cc(NC(=O)c3csc(-c4cn[nH]c4)n3)c(-c3nc(F)ccc3F)n2)CC1` [I-104, N-(3-(3,6-difluoropyridin-2-yl)-1-((1r,4r)-4-ethoxycyclohexyl)-1H-pyrazol-4-yl)-2-(1H-pyrazol-4-yl)thiazole-4-carboxamide phosphate], for which the bioavailability in data set [1] (cynomolgus monkey, plasma, po, n=3, capsule with equivalent of 25 mg free base compound I-1, read-out: % F (percent bioavailability)) was determined as 7.9%. In addition, in data set [1] (cynomolgus monkey, po, n=3, capsule with equivalent of 25 mg free base compound I-1, plasma, normalized to 5 mg/kg of compound I-1, read-out: Average AUC0-24 h ± SD (5 mg/kg basis)), the AUC(0-t) came out at 921 ± 446 ng·h/mL.

As for `CCO[C@H]1CC[C@H](n2cc(NC(=O)c3csc(-c4cn[nH]c4)n3)c(-c3nc(F)ccc3F)n2)CC1` [I-105, N-(3-(3,6-difluoropyridin-2-yl)-1-((1r,4r)-4-ethoxycyclohexyl)-1H-pyrazol-4-yl)-2-(1H-pyrazol-4-yl)thiazole-4-carboxamide gentisate], the “% F (percent bioavailability)” value in data set [1] (n=3, capsule with equivalent of 25 mg free base compound I-1, listed as Gentisate cocystal) worked out at 9.8%.

Regarding `CCO[C@H]1CC[C@H](n2cc(NC(=O)c3csc(-c4cn[nH]c4)n3)c(-c3nc(F)ccc3F)n2)CC1` [I-106, N-(3-(3,6-difluoropyridin-2-yl)-1-((1r,4r)-4-ethoxycyclohexyl)-1H-pyrazol-4-yl)-2-(1H-pyrazol-4-yl)thiazole-4-carboxamide succinate], the “% F (percent bioavailability)” value in data set [1] (n=3, capsule with equivalent of 25 mg free base compound I-1, listed as Succinate co-crystal) is on record as 12.7%.

With `CCO[C@H]1CC[C@H](n2cc(NC(=O)c3csc(-c4cnn(C(C)OP(=O)(O)O)c4)n3)c(-c3nc(F)ccc3F)n2)CC1` (stereo partly drawn) [I-108, potassium 1-(4-(4-((3-(3,6-difluoropyridin-2-yl)-1-((1r,4r)-4-ethoxycyclohexyl)-1H-pyrazol-4-yl)carbamoyl)thiazol-2-yl)-1H-pyrazol-1-yl)ethyl hydrogen phosphate], the “Area (%) of HPLC peak RRT 1.14” value is less than 0.04% in data set [2] (25° C./60% RH, 1 week); 0.05% in data set [2] (40° C./75% RH, 1 week); less than 0.04% in data set [2] (Initial). The “Area (%) of HPLC peak RRT 1.40” value in data set [2] (25° C./60% RH, 1 week) worked out at 0.25%; in data set [2] (40° C./75% RH, 1 week), 0.39%; in data set [2] (Initial) it was 0.23%. The “Area (%) of HPLC peak RRT 1.44” value in data set [2] (25° C./60% RH, 1 week) stood at 0.30%; in data set [2] (40° C./75% RH, 1 week), 0.24%; in data set [2] (Initial), 0.21%. In addition, the “Area (%) of HPLC peak RRT 1.70” value in data set [2] (25° C./60% RH, 1 week) is 0.27%; in data set [2] (40° C./75% RH, 1 week), 0.24%; in data set [2] (Initial), 0.18%. The “Area (%) of HPLC peak RRT 1.72” value in data set [2] (25° C./60% RH, 1 week) was 0.78%; in data set [2] (40° C./75% RH, 1 week), 0.83%; in data set [2] (Initial), 0.77%. Also, the “Area (%) of HPLC peak RRT 1.81” value in data set [2] (25° C./60% RH, 1 week) is reported as less than 0.04%; in data set [2] (40° C./75% RH, 1 week), 0.04%; in data set [2] (Initial), less than 0.04%. Also, the HPLC purity change entry in data set [2] (25° C./60% RH, 1 week, listed as K salt) is “slight purity decrease”; in data set [2] (40° C./75% RH, 1 week, listed as K salt) it was “slight purity decrease”. The “Area (%) of HPLC peak RRT 1.00” value in data set [2] (setting [5]) was determined as 96.26%; in data set [2] (setting [6]), 96.40%; in data set [2] (setting [7]), 97.27%. Also, the “Area (%) of HPLC peak RRT 1.17” value in data set [2] (setting [5]) came out at 2.14%; in data set [2] (setting [6]), 1.80%; in data set [2] (setting [7]), 1.33%. Besides, the Form change result in data set [2] (25° C./60% RH/1 week, listed as K salt) was “no form change and No”; in data set [2] (40° C./75% RH/1 week, listed as K salt) it was “a form change was observed and Yes”. Further, in data set [2] (listed as K salt), the “Initial purity (area %)” value stood at 97.27 area %.

For `CCO[C@H]1CC[C@H](n2cc(NC(=O)c3csc(-c4cnn(C(C)OP(=O)(O)O)c4)n3)c(-c3nc(F)ccc3F)n2)CC1` (stereo partly drawn) [I-111, 1-(4-(4-((3-(3,6-difluoropyridin-2-yl)-1-((1r,4r)-4-ethoxycyclohexyl)-1H-pyrazol-4-yl)carbamoyl)thiazol-2-yl)-1H-pyrazol-1-yl)ethyl dihydrogen phosphate choline salt], in data set [2] (setting [8]), the “Area (%) of HPLC peak RRT 0.77” value is listed as 0.04%, the “Area (%) of HPLC peak RRT 1.35” value turned out to be 0.10%, the “Area (%) of HPLC peak RRT 1.45” value is on record as 0.07% and the “Area (%) of HPLC peak RRT 1.71” value came to 0.05%. Also, in data set [2] (setting [8]), the “Area (%) of HPLC peak RRT 1.73” value stood at 0.46%, the HPLC purity change entry is given as “no HPLC purity decrease”, the “Area (%) of HPLC peak RRT 1.00” value came to 98.66% and the “Area (%) of HPLC peak RRT 1.17” value amounted to 0.58%. Besides, the “Purity/Initial purity (%)” value in data set [2] (25° C./60% RH/1 week) was found to be 100.0%. Also, in data set [2] (25° C./60% RH/1 week, listed as Choline salt), the Form change result was “no form change and No”. Also, in data set [2] (setting [9]), the “Area (%) of HPLC peak RRT 0.77” value came out at 0.04%, the “Area (%) of HPLC peak RRT 1.35” value amounted to 0.14%, the “Area (%) of HPLC peak RRT 1.45” value came to 0.11% and the “Area (%) of HPLC peak RRT 1.71” value turned out to be 0.08%. In addition, in data set [2] (setting [9]), the “Area (%) of HPLC peak RRT 1.73” value is reported as 0.46%, the HPLC purity change result is “a purity decrease was observed”, the “Area (%) of HPLC peak RRT 1.00” value was determined as 97.81% and the “Area (%) of HPLC peak RRT 1.17” value came to 1.31%. Besides, the Form change result in data set [2] (40° C./75% RH/1 week, listed as Choline salt) was “no form change and No”. Further, the “Initial purity (area %)” value in data set [2] (listed as Choline salt) worked out at 98.70 area %. In addition, in data set [2] (Initial), the “Area (%) of HPLC peak RRT 1.35” value was less than 0.03%. Also, in data set [2] (setting [10]), the “Area (%) of HPLC peak RRT 0.77” value stood at 0.03%, the “Area (%) of HPLC peak RRT 1.13” value is recorded as 0.06%, the “Area (%) of HPLC peak RRT 1.45” value was determined as 0.06% and the “Area (%) of HPLC peak RRT 1.71” value was determined as 0.06%. In data set [2] (setting [10]), the “Area (%) of HPLC peak RRT 1.73” value was 0.33%, the “Area (%) of HPLC peak RRT 1.00” value turned out to be 98.70% and the “Area (%) of HPLC peak RRT 1.17” value is recorded as 0.75%.

(Values after US12441723B2, “Pyrazole compounds, formulations thereof, and a method for using the compounds and/or formulations” (Rigel Pharmaceuticals, Inc., priority 2019, dated 2025).)
